Test results: ChEMBL document CHEMBL1201862, “PubChem BioAssay data set” (2004)
Structures can show the parent of a compound that is named as a salt. The source made the active and inactive calls.

Legend:
Cytochrome P450 2C19 = Cytochrome P450 2C19 (Homo sapiens, UniProt P33261); assay: Cytochrome panel assay with activity outcomes. Panel member name: p450-cyp2c19 Compounds with AC50 equal or less than 10 uM are considered active; format: functional
[1] = target: T1, Replicative DNA helicase DnaB (Mycobacterium tuberculosis, UniProt P9WMR3); assay: DnaB intein splicing inhibitors, dose response, biochemical, cell-free fluorescence (AID 449749); format: functional
T1 sequence (P9WMR3 whole entry): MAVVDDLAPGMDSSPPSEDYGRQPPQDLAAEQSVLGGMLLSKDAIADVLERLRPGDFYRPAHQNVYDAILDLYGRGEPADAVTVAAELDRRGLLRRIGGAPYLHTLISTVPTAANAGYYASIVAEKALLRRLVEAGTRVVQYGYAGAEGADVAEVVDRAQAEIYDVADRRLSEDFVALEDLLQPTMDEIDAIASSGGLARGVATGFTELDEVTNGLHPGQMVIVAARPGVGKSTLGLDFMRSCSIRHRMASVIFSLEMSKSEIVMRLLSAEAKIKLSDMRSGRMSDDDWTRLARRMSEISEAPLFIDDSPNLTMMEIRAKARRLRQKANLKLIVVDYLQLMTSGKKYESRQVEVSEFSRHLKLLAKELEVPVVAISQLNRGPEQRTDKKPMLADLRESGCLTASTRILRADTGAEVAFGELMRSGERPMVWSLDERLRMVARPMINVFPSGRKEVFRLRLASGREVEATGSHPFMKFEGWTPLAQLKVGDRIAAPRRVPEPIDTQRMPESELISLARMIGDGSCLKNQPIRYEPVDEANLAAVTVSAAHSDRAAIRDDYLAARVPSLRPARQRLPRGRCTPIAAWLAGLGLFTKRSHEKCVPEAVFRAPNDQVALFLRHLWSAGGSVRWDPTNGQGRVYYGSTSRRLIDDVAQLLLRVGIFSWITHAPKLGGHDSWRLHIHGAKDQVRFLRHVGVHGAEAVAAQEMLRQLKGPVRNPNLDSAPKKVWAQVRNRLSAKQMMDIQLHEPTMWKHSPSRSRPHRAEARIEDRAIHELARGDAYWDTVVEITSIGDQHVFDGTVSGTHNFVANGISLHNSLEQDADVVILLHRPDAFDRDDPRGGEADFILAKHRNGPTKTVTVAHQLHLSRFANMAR

Protein RecA = target: T2, Protein RecA (Mycobacterium tuberculosis, UniProt P9WHJ3); assay: Fluorescence Cell-Free Homogeneous Dose Retest to Identify Inhibitors of RecA-Intein Splicing Activity. [Related pubchem assays (depositor defined):AID2097, AID2223, AID489010, AID492950]; format: functional
T2 sequence (P9WHJ3 whole entry): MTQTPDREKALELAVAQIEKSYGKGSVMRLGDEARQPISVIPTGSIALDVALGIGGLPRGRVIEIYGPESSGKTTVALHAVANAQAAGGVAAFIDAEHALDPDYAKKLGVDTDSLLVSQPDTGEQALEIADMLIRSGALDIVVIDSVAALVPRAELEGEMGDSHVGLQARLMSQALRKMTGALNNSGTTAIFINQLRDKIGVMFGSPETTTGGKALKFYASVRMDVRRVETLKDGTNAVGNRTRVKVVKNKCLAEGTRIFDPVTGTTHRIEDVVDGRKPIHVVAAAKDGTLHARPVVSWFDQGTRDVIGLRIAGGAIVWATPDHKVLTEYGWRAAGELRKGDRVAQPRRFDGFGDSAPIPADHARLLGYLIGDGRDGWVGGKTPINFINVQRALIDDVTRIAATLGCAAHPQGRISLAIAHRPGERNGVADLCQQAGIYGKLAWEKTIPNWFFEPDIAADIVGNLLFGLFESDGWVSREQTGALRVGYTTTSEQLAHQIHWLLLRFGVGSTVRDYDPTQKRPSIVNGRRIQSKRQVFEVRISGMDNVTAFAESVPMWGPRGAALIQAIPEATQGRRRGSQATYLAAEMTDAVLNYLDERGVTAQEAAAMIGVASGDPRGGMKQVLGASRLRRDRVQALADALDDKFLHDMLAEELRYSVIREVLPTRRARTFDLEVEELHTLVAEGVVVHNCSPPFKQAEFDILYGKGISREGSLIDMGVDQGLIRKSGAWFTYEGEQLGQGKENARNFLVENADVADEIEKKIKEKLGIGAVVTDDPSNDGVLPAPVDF

[2] = target: Luciferin 4-monooxygenase (Photinus pyralis, UniProt P08659); assay: firefly luciferase enzyme inhibitors, dose response, biochemical, luminescence (AID 1891)
Sequence of Luciferin 4-monooxygenase (P08659 whole entry): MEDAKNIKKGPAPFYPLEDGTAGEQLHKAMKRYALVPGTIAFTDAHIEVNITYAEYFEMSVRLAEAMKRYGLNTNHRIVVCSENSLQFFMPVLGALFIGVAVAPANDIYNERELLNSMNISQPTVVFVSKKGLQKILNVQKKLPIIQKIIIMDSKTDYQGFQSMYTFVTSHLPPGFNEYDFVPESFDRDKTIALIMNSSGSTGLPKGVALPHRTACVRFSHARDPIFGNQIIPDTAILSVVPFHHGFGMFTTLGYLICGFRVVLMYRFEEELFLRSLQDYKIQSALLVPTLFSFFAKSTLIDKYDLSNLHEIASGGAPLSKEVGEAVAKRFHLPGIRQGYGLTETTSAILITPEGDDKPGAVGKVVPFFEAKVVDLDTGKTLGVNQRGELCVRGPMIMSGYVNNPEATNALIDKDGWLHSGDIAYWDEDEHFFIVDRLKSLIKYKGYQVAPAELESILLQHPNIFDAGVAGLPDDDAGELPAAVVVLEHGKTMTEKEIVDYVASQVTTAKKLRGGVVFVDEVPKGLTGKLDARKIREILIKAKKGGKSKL

[3] = Luminescence Cell-Based Dose Confirmation HTS to Identify Inhibitors of Platelet Dense Granule Release. [Related pubchem assays: 1663 (Primary HTS), 1678 (Summary of Project)]; format: functional
[4] = HEp-2 cell cytotoxicity, dose response, cytotoxicity control for RSV inhibitor project, HTS (AID 2410); format: functional; conditions: human respiratory syncytial virus
[5] = inhibitors of intracellular T. cruzi replication, confirmation, NIH3T3 host cells, beta-gal luminescence (AID 2044); format: functional, cell-based;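 further: intracellular parasites grown in NIH/3T3 mouse fibroblasts as host cells; luminescent beta-galactosidase reporter signal from transgenic T. cruzi replicating inside host cells; inhibitors lower the luminescence signal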
[6] = cytotoxicity toward NIH3T3 fibroblasts, dose response, counter-screen, cell-based, ATP luminescence, mouse fibroblasts (AID 2010); format: functional;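 further: cells exposed to compound for about 90 hours before reading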
[7] = Luminescence Cell-Based Dose Retest to Confirm Inhibitors of Cancer Stem Cells. [Related pubchem assays (depositor defined):AID2717, AID2721]; format: functional; conditions: Homo sapiens
Cytochrome P450 2C9 = Cytochrome P450 2C9 (Homo sapiens, UniProt P11712)
Sequence of Cytochrome P450 2C9 (P11712 whole entry): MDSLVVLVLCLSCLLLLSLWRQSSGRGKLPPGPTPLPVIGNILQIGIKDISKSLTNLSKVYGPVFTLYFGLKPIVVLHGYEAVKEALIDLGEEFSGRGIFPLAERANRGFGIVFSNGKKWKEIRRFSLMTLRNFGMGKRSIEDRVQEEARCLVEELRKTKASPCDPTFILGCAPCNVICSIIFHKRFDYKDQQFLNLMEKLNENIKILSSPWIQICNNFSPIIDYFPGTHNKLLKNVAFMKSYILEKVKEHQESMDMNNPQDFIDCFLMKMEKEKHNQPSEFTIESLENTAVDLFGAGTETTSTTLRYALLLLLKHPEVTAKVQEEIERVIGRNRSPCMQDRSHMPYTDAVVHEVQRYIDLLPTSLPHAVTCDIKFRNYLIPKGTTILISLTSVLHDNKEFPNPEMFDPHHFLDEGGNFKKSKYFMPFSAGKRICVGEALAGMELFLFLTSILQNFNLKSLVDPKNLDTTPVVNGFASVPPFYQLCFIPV

Cytochrome P450 3A4 = Cytochrome P450 3A4 (Homo sapiens, UniProt P08684);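 further: CYP3A4 tested as one member of a cytochrome P450 panel screen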
Sequence of Cytochrome P450 3A4 (P08684 whole entry): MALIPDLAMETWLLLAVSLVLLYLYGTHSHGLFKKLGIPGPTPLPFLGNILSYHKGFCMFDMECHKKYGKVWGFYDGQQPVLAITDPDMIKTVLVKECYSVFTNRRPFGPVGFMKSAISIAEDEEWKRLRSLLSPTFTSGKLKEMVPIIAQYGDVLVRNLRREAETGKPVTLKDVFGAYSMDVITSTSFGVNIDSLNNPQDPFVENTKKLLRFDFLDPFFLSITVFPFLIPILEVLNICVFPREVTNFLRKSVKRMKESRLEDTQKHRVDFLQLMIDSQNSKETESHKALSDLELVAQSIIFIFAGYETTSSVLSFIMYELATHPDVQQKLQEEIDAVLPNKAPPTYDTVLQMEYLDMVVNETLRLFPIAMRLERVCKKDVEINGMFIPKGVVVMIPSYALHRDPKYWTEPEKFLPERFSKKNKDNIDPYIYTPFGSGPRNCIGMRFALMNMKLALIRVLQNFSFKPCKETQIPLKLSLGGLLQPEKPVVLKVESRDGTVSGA

INS1 = assay: beta cell apoptosis inhibitors, cytokine rescue, dose response, luminescence, retest (AID 449756); format: functional, cell-based; conditions: Rattus norvegicus;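 further: cell death triggered by IL-1 beta plus TNF-alpha plus IFN-gamma mixture; protective hits raise ATP signal compared with cytokine alone wells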

Sequence of Cytochrome P450 2C19 (P33261 whole entry): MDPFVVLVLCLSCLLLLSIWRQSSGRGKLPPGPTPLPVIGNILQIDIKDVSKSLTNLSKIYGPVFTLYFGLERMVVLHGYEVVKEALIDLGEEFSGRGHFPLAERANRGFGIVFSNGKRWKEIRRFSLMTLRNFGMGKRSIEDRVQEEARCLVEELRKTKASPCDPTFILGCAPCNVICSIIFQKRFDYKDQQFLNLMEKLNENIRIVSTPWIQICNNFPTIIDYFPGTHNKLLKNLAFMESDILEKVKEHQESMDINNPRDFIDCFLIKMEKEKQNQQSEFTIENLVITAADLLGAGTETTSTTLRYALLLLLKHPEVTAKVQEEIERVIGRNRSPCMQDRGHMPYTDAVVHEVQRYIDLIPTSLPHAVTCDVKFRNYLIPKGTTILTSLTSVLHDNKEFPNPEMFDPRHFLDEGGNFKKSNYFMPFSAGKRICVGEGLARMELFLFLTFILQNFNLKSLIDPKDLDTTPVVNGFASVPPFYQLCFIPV

CCOC(=O)c1cn(-c2nc(-c3ccc(Cl)cc3)cs2)c2c(F)c(N3CC(C)OC(C)C3)c(F)cc2c1=O (stereo not drawn)
AC50 (Cytochrome P450 2C19; read-out: AC50): 17.8 µM (inconclusive)

O=C(Oc1ccc(N(C(=O)c2ccncc2)S(=O)(=O)c2ccc(Cl)cc2)cc1)c1ccncc1
AC50 [1]: 9.26 µM (active)
EC50 (Protein RecA): 16.4 µM (active)

COCCN(C(=O)COC(=O)CCc1nc2ccccc2s1)c1c(N)n(Cc2ccccc2)c(=O)[nH]c1=O
EC50 [2]: > 112 µM (not active)
EC50 [3]: > 112 µM (not active)

CCCNC(=O)c1c(N)n(Cc2ccco2)c2nc3ccccc3nc12
CC50 [4]: 29.8 µM (active)

COc1nc(C(=N)NO)nc(N2CCCCC2)n1
AC50 (Cytochrome P450 2C19; read-out: AC50): 39.8 µM (inconclusive)

Cc1cc(C)n(C(=O)c2cccc(S(=O)(=O)N3CCCCC3)c2)n1
EC50 [2]: > 112 µM (not active)
EC50 [3]: > 112 µM (not active)

CCOC(=O)c1c(NC(=O)CSc2nc3cc(C)ccc3[nH]2)sc2c1CC(C)(C)NC2(C)C
EC50 [5]: 0.855 µM (active)
EC50 [6]: 18.6 µM (active)
AC50 [7]: 7.46 µM (active)

O=c1nc(-c2ccccc2)n(-c2ccccc2)c2ncccc12
AC50 (Cytochrome P450 2C19; read-out: AC50): 22.4 µM (inconclusive)

CCn1c(S)nnc1-c1ccoc1C
AC50 (Cytochrome P450 2C19; read-out: AC50): 28.2 µM (inconclusive)
AC50 (Cytochrome P450 2C9): 31.6 µM (inconclusive)

Cc1nc2cnc(Oc3ccccc3)nc2n(-c2ccccc2)c1=O
AC50 (Cytochrome P450 3A4): 25.1 µM (inconclusive)
AC50 (Cytochrome P450 2C9): 25.1 µM (inconclusive)

COC(=O)[C@@]1(Cc2ccc(OC)cc2)[C@@H]2C(=CC(=O)[C@H]2CC(=O)C(=O)N(C)C)CN1C(=O)c1ccccc1
AC50 (Cytochrome P450 3A4): 2.51 µM (inconclusive)
AC50 (Cytochrome P450 2C9): 25.1 µM (inconclusive)

COc1ccc(-c2[nH]nc3c2C(c2ccncc2)C(C#N)=C(N)O3)cc1 (stereo not drawn)
AC50 [1]: 8.02 µM (active)
EC50 (Protein RecA): 2.26 µM (active)

CC1CCCN(S(=O)(=O)c2ccc(NC(=O)c3cccc(-n4cnnn4)c3)cc2)C1 (stereo not drawn)
CC50 [4]: 16.4 µM (active)

Cc1ccccc1-c1nc(N(C)Cc2ccco2)c2ccccc2n1
AC50 (Cytochrome P450 3A4): 25.1 µM (inconclusive)

FC(F)(F)c1nnc(-c2ccccc2)nc1Oc1ccc(Cl)cc1Cl
CC50 [4]: 31.4 µM (active)
AC50 [1]: 1.44 µM (active)
EC50 (Protein RecA): 0.481 µM (active)

Sc1nnc(-c2ccncc2)n1CC1CCCO1 (stereo not drawn)
AC50 (Cytochrome P450 2C19; read-out: AC50): 31.6 µM (inconclusive)
AC50 (Cytochrome P450 3A4): 22.4 µM (inconclusive)
AC50 (Cytochrome P450 2C9): 28.2 µM (inconclusive)

COC(=O)c1ccc(/C=C/c2c(-c3ccc(OC)cc3)oc3ccc(N4CCOCC4)cc23)cc1
AC50 [7]: 2 µM (active)

Cc1ccc(-c2nc(Nc3ccc(N4CCOCC4)cc3)c3ccccc3n2)cc1
CC50 [4]: 18.6 µM (active)

O=C(/C=C/c1ccco1)NCC1OCCc2ccccc21 (stereo not drawn)
AC50 [7]: > 195 µM (inactive)

CCOC(=O)CSc1ncc(OC)c(Sc2ccc(Cl)cc2)n1
AC50 (Cytochrome P450 3A4): 25.1 µM (inconclusive)

C[Se]C[C@@H](N)C(=O)O
AC50 (Cytochrome P450 2C19): inconclusive
AC50 (Cytochrome P450 3A4): 1.26 µM (inconclusive)

COc1cc2cc(CN(CCCO)S(=O)(=O)c3ccccc3Cl)c(O)nc2cc1OC
AC50 (Cytochrome P450 2C19; read-out: AC50): 39.8 µM (inconclusive)

O=C(Nc1ccc(S(=O)(=O)NCc2ccco2)cc1)c1ccc(F)cc1
EC50 [2]: > 112 µM (not active)
EC50 [3]: > 112 µM (not active)

Cc1cc(C(=O)CSc2ccc(F)cc2)cc(C)c1O
CC50 [4]: 22 µM (active)

COc1cccc(-c2nn(-c3ccccc3)cc2/C=C\C(=O)c2cccs2)c1
CC50 [4]: 24.3 µM (active)

N=C1O[C@@H](c2c[nH]c3ccc(OCc4ccccc4)cc23)C(O)=C1O
AC50 (Cytochrome P450 2C19; read-out: AC50): 6.31 µM (inconclusive)
AC50 (Cytochrome P450 3A4): 3.16 µM (inconclusive)

CCOC(=O)c1c(CC(C)C)csc1NC=O
AC50 (Cytochrome P450 3A4): 22.4 µM (inconclusive)

CCOC(=O)C1CCCN(C(=O)C2CCN(S(=O)(=O)N3CCC4(CC3)OCCO4)CC2)C1 (stereo not drawn)
AC50 (Cytochrome P450 2C19; read-out: AC50): 35.5 µM (inconclusive)
AC50 (Cytochrome P450 3A4): 20 µM (inconclusive)

CCNc1ncc2nc(CCc3ccccc3)c(=O)n(CCOC)c2n1
AC50 (Cytochrome P450 3A4): 15.8 µM (inconclusive)

CCC(C)OC(=O)C1=C(C)OC23OC(N)=C(C#N)C12C(=O)c1ccccc13 (stereo not drawn)
EC50 [2]: > 112 µM (not active)
EC50 [3]: > 112 µM (not active)

Cc1ccc(S(=O)(=O)Nc2ccc(C(OC(=O)c3ccccc3[N+](=O)[O-])(C(F)(F)F)C(F)(F)F)cc2)cc1
AC50 [7]: 6.11 µM (active)
AC50 (INS1): 14.3 µM (active)

O=C(c1ccccc1NS(=O)(=O)c1cccc([N+](=O)[O-])c1)N1CCOCC1
AC50 (Cytochrome P450 3A4): 17.8 µM (inconclusive)
AC50 (Cytochrome P450 2C9): 7.94 µM (inconclusive)

C#CCOc1ccc(OC)cc1C(c1c(C)n[nH]c1O)c1c(C)n[nH]c1O
AC50 [1]: 0.405 µM (active)
EC50 (Protein RecA): 0.187 µM (active)

C[C@H](CO)N1C[C@H](C)[C@H](CN(C)Cc2ccc(-c3ccccc3)cc2)Oc2ccc(NS(=O)(=O)c3ccccc3)cc2CC1=O
AC50 [7]: 5.07 µM (active)

Cc1cccc(/N=C2\C(Cl)=C(O)OC2OC(=O)c2ccco2)c1 (stereo not drawn)
AC50 [1]: 13.8 µM (active)
EC50 (Protein RecA): 12.9 µM (active)

CCOc1ccc(/C=N/NC(=O)c2ccoc2C)cc1OC
EC50 [2]: 28.3 µM (active)
EC50 [3]: 6.04 µM (active)

O=C(Nc1ccccc1C(=O)N/N=C/c1ccco1)c1ccc(Cl)cc1
EC50 [2]: 0.192 µM (active)
EC50 [3]: 10.9 µM (active)

CC(/C=C/c1ccco1)=N/NC(=O)c1ccccc1Cl
AC50 (Cytochrome P450 2C19; read-out: AC50): 39.8 µM (inconclusive)
AC50 (Cytochrome P450 3A4): 31.6 µM (inconclusive)

Cn1cc(/C=N/n2cnc3sc4c(c3c2=O)CCCC4)c2ccccc21
AC50 (Cytochrome P450 3A4): 22.4 µM (inconclusive)
AC50 (Cytochrome P450 2C9): 39.8 µM (inconclusive)

CCc1[nH]nc2c1C(Cc1ccccc1)C(C#N)=C(N)O2 (stereo not drawn)
AC50 [1]: 22.3 µM (active)
EC50 (Protein RecA): 6.37 µM (active)

Cc1c(O)cccc1C(=O)N[C@@H](CSc1ccccc1)[C@H](O)CN1C[C@H]2CCCC[C@H]2C[C@H]1C(=O)NC(C)(C)C [NELFINAVIR MESYLATE]
AC50 [7]: 4.22 µM (active)
